Experimental data published in US7396837B2, “Antitumoral analogs of lamellarins” (Pharma Mar, S.A.U., priority 2002, dated 2008).
Read-outs that look alike come from different tables or passages of the source.

Assays:
[1] = system: HeLa; experiment: SRB colorimetric cell growth inhibition assay, HeLa; type: cell-based; conditions: Homo sapiens, HeLa; for GI50: read-out: GI50 HELA; for CC50: read-out: LC50 HELA; for IC (TGI): read-out: TGI HELA
Summary of the method: (§1)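 In this cytotoxicity screen, compound stays in contact with the cultured human cancer cells without washout; sulforhodamine B binding gives the measure of cell number, and endpoints separate growth inhibition from cytostasis (TGI) and killing (LC).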

[2] = system: HeLa-APL; experiment: SRB colorimetric cell growth inhibition assay, HeLa-APL (aplidine resistant); type: cell-based; conditions: Homo sapiens; for GI50: read-out: GI50 HELA-APL; for CC50: read-out: LC50 HELA-APL; for IC (TGI): read-out: TGI HELA-APL
Summary of the method: as §1

[3] = target: T1, human topoisomerase I (Homo sapiens, UniProt P11387); experiment: Topoisomerase I cleavage of radiolabeled 117-bp DNA fragment; type: biochemical; conditions: 117-bp DNA restriction fragment 3' end-labeled
T1 sequence (P11387 1-765): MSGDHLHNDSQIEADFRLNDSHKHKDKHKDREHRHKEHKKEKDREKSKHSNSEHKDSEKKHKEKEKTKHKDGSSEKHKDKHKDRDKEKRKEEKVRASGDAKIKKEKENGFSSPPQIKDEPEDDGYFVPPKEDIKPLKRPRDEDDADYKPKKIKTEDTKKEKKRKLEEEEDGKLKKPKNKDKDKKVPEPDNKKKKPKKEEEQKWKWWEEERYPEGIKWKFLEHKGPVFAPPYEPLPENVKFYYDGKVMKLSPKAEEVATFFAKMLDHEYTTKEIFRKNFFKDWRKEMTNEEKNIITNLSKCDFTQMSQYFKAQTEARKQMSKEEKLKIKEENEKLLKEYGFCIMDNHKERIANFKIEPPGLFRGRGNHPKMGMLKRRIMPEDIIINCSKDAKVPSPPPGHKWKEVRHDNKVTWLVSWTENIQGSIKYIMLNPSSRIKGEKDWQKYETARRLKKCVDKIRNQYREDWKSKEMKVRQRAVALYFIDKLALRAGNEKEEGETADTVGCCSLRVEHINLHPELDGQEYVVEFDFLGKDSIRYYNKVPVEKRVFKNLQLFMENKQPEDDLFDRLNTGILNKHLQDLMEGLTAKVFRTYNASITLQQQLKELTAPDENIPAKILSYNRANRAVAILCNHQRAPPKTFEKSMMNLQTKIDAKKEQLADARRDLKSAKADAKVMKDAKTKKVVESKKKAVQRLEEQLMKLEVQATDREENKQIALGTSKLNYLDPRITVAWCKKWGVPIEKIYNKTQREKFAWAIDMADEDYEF
Text: Two assays, based on DNA relaxation and DNA cleavage (Bailly, C. DNA relaxation and cleavage assays to study topoisomerase I inhibitors. Methods Enzymol. 2001, 340, 610-623) were used evaluate the effects of the lamellarin analogs on the catalytic activity of human topoisomerase I.
A second assay, based on the cleavage of a radiolabeled DNA substrate by topoisomerase I, was used to confirm that the cationic lamellarin derivatives do effectively function as topoisomerase I poisons. A 117-bp DNA restriction fragment uniquely end-labeled at the 3′ end was subjected to cleavage by topoisomerase I in the presence of the different compounds and the resulting DNA cleavage products were resolved on sequencing-type polyacrylamide gels. The advantage of this assay is to detect the cleavage sites and to locate their positions with nucleotide resolution, providing thus information on the site selectivity of cleavage.

[4] = system: SKOV-3; experiment: SRB colorimetric cell growth inhibition assay, SKOV-3; type: cell-based; conditions: Homo sapiens; for GI50: SK-OV-3, SKOV-3, GI=growth inhibition, read-out: GI50 SKOV-3; for IC (TGI): total growth inhibition (cytostatic effect), read-out: TGI SKOV-3
Summary of the method: (§2)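 Growth inhibition (GI), total growth inhibition (TGI, cytostatic) and lethal concentration (LC, cytotoxic) come from an SRB-based colorimetric measure of growth and viability. Data are triplicate-well means ± SD.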

[5] = system: H-MEC-1; experiment: SRB colorimetric cell growth inhibition assay, H-MEC-1; type: cell-based; conditions: Homo sapiens, HMEC-1, H-MEC-1; for GI50: GI=growth inhibition, read-out: GI50 H-MEC-1; for IC (TGI): total growth inhibition (cytostatic effect), read-out: TGI H-MEC-1
Summary of the method: as §2

[6] = as above; type: cell-based; conditions: human
Summary of the method: as §2

[7] = cell killing (cytotoxic effect)
[8] = total growth inhibition (cytostatic effect)
[9] = HELA-APL, cell killing (cytotoxic effect)
[10] = HELA-APL, total growth inhibition (cytostatic effect)
[11] = SK-OV-3, SKOV-3, cell killing (cytotoxic effect), read-out: LC50 SKOV-3

SMILES	stimulation of DNA cleavage by topoisomerase I (radiolabeled DNA substrate) [3]	GI50 ([1]; GI=growth inhibition) [nM]	CC50 [1, 7] [nM]	IC (TGI) [1, 8] [nM]	GI50 ([2]; HELA-APL, GI=growth inhibition) [nM]	CC50 [2, 9] [nM]	IC (TGI) [2, 10] [nM]	GI50 [4] [nM]	LC50 (concentration causing 50% net cell killing) [4, 11] [nM]	IC (TGI) ([4]; SK-OV-3, SKOV-3) [nM]	GI50 [5] [nM]	IC (TGI) [5] [nM]	other results
COc1cc(-c2c3n(c4c(=O)oc5cc(OC(=O)[C@H](C)NC(=O)[C@H](C)NC(=O)OC(C)(C)C)c(OC)cc5c24)CCc2cc(OC(=O)[C@H](C)NC(=O)[C@H](C)NC(=O)OC(C)(C)C)c(OC)cc2-3)ccc1OC(=O)[C@H](C)NC(=O)[C@H](C)NC(=O)OC(C)(C)C [Compound 7]	stimulate DNA cleavage by the enzyme												GI50 [1]: 830 nM; CC50 [1]: 4420 nM; IC (TGI) [1]: 1910 nM; GI50 [2]: 1850 nM; CC50 [2]: 7240 nM; IC (TGI) [2]: 3660 nM
COc1cc(-c2c3n(c4c(=O)oc5cc(OC(=O)CCc6ccccc6)c(OC)cc5c24)CCc2cc(OC(=O)CCc4ccccc4)c(OC)cc2-3)ccc1OC(=O)CCc1ccccc1 [Compound 11]		208	11100	1350	5230	11100	11100						
COc1cc(-c2c3c4cc(OC)c(OC(=O)[C@H](N)C(C)C)cc4oc(=O)c3n3ccc4cc(OC(=O)[C@H](N)C(C)C)c(OC)cc4c23)ccc1OC(=O)[C@H](N)C(C)C [Compound 17]	no difference between the (L) (36) and (D) (17) Val isomers	109	878	359	119	1850	353						
COc1cc(-c2c3n(c4c(=O)oc5cc(OC(=O)[C@@H](N)Cc6c[nH]c7ccccc67)c(OC)cc5c24)CCc2cc(OC(=O)[C@@H](N)Cc4c[nH]c5ccccc45)c(OC)cc2-3)ccc1OC(=O)[C@@H](N)Cc1c[nH]c2ccccc12 [Compound 24]								1670	6900	3390	806	2200	LC50 (concentration giving 50% net cell killing) ([6]; H-MEC-1, cell killing (cytotoxic effect), read-out: LC50 H-MEC-1): 5970 nM
COc1cc(-c2c3n(c4c(=O)oc5cc(OC(=O)[C@H](N)C(C)C)c(OC)cc5c24)CCc2cc(OC(=O)[C@H](N)C(C)C)c(OC)cc2-3)ccc1OC(=O)[C@H](N)C(C)C [Compound 32]								1860		3670	276	723	LC50 (concentration causing 50% net cell killing) ([4]; SK-OV-3, read-out: LC50 SKOV-3): 7270 nM; LC50 (concentration giving 50% net cell killing) [6]: 5370 nM
COc1cc(-c2c3c4cc(OC)c(OC(=O)[C@@H]5CCCN5)cc4oc(=O)c3n3ccc4cc(OC(=O)[C@@H]5CCCN5)c(OC)cc4c23)ccc1OC(=O)[C@@H]1CCCN1 [Compound 33]								39.1	5030	228	9.8	21.4	LC50 (concentration giving 50% net cell killing) ([6]; H-MEC-1 cells, H-MEC-1, cell killing (cytotoxic effect), read-out: LC50 H-MEC-1): 46.3 nM; topoisomerase I-mediated DNA cleavage sites / cleavage profile ([3]; sequencing-type polyacrylamide gels): Cleavage profiles identical to that of 3
